Assay results from the kinase profiling compilation of Christmann-Franck et al. (2016).
Blank lines part the entries; values can stand above or below the compound they belong to.

How the values were obtained:
Test in all cases: radiometric filter-binding kinase assay
MAPK11 (human) = MAPK11 (human) (UniProt Q15759)
DYRK2 (human) = DYRK2 (human) (UniProt Q92630)
BTK (human) = BTK (human) (UniProt Q06187)
MARK4 (human) = MARK4 (human) (UniProt Q96L34)
INSRR (human) = INSRR (human) (UniProt P14616)
SRPK1 (human) = SRPK1 (human) (UniProt Q96SB4)
CLK2 (human) = CLK2 (human) (UniProt P49760); conditions: compound 10.0 µM
CSNK1D (human) = CSNK1D (human) (UniProt P48730)
Sequence of CSNK1D (human) (P48730 whole entry, looked up): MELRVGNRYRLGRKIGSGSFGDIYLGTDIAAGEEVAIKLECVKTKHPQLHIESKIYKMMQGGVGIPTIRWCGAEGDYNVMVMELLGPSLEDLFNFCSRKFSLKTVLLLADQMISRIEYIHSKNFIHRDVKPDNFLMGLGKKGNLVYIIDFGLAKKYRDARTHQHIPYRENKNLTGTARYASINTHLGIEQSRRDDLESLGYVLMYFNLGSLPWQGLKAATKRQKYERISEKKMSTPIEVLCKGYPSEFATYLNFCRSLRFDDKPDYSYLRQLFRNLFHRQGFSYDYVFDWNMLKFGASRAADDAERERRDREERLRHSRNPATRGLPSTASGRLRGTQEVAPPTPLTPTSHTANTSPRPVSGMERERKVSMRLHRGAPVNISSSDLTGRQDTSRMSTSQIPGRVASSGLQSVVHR

INSR (human) = INSR (human) (UniProt P06213)
YES1 (human) = YES1 (human) (UniProt P07947)
Sequence of YES1 (human) (P07947 whole entry, looked up): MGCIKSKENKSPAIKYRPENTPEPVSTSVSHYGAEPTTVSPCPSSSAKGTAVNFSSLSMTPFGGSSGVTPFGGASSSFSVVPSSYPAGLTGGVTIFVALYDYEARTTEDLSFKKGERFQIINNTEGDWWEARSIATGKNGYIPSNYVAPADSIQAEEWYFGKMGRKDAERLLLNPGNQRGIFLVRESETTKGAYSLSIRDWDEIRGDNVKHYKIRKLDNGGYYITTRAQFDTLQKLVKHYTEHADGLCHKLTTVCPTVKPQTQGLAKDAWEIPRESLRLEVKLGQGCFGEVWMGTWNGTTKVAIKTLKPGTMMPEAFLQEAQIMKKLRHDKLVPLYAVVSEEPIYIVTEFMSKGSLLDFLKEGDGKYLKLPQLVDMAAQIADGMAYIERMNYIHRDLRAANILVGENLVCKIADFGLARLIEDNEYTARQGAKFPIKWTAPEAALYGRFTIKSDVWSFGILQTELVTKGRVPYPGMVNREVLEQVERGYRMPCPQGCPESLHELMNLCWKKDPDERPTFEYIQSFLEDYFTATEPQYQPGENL

FLT1 (human) = FLT1 (human) (UniProt P17948)
RPS6KA1 KD1 KD2 (human) = RPS6KA1 KD1 KD2 (human) (UniProt Q15418)
NEK2 (human) = NEK2 (human) (UniProt P51955)
JAK2 JH1 JH2 (human) = JAK2 JH1 JH2 (human) (UniProt O60674)
MARK3 (human) = MARK3 (human) (UniProt P27448)
Sequence of MARK3 (human) (P27448 whole entry, looked up): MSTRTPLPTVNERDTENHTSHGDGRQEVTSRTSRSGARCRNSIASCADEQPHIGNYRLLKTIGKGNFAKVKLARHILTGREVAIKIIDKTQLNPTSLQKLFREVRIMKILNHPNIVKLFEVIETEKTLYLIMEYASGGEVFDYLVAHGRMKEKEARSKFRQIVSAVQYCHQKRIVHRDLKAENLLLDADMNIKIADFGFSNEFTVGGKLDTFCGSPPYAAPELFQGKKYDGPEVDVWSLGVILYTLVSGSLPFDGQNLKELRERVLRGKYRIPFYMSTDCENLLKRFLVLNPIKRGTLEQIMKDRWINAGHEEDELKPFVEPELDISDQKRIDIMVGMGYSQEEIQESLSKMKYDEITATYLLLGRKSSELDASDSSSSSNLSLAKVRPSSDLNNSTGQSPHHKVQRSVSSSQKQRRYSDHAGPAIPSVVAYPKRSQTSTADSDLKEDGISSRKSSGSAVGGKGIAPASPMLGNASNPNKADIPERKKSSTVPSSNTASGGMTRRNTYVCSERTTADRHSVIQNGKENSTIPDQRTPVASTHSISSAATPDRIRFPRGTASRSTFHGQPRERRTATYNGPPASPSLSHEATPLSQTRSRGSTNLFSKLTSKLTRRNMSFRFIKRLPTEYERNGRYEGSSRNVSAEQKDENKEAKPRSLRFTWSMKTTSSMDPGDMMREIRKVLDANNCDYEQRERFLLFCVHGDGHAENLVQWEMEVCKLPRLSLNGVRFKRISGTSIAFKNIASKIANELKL

PRKCA (human) = PRKCA (human) (UniProt P17252)
RIPK2 (human) = RIPK2 (human) (UniProt O43353)
HIPK1 (human) = HIPK1 (human) (UniProt Q86Z02); conditions: compound 10.0 µM
IRAK4 (human) = IRAK4 (human) (UniProt Q9NWZ3)
MAPK15 (human) = MAPK15 (human) (UniProt Q8TD08)
CSNK2A1 (human) = CSNK2A1 (human) (UniProt P68400)
MAP3K9 (human) = MAP3K9 (human) (UniProt P80192)
[1] = test system: RPS6KB1 (human), P23443 [T412E]
MAPKAPK3 (human) = MAPKAPK3 (human) (UniProt Q16644)
AURKA (human) = AURKA (human) (UniProt O14965)
MAPK1 (human) = MAPK1 (human) (UniProt P28482)
MAP3K1 (human) = MAP3K1 (human) (UniProt Q13233)
NEK6 (human) = NEK6 (human) (UniProt Q9HC98)
RPS6KA5 KD1 KD2 (human) = RPS6KA5 KD1 KD2 (human) (UniProt O75582)
HIPK2 (human) = HIPK2 (human) (UniProt Q9H2X6)
[2] = target: STK11 CAB39 STRADA (human) (UniProt Q9Y376+Q7RTN6+Q15831)
[3] = test system: AKT2 (human), P31751 [S474D]
MKNK2 (human) = MKNK2 (human) (UniProt Q9HBH9)
MAPK14 (human) = MAPK14 (human) (UniProt Q16539)
Sequence of MAPK14 (human) (Q16539 whole entry, looked up): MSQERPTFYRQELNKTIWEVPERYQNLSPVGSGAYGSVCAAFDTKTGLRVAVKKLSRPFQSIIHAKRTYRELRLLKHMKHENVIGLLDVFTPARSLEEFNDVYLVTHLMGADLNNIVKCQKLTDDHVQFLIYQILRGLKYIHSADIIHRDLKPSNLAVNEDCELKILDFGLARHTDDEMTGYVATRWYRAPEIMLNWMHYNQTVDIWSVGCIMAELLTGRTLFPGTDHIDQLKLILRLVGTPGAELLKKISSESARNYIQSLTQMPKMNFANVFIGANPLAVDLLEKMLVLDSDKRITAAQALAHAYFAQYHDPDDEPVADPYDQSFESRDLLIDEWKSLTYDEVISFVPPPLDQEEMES

NTRK1 (human) = NTRK1 (human) (UniProt P04629)
Sequence of NTRK1 (human) (P04629 whole entry, looked up): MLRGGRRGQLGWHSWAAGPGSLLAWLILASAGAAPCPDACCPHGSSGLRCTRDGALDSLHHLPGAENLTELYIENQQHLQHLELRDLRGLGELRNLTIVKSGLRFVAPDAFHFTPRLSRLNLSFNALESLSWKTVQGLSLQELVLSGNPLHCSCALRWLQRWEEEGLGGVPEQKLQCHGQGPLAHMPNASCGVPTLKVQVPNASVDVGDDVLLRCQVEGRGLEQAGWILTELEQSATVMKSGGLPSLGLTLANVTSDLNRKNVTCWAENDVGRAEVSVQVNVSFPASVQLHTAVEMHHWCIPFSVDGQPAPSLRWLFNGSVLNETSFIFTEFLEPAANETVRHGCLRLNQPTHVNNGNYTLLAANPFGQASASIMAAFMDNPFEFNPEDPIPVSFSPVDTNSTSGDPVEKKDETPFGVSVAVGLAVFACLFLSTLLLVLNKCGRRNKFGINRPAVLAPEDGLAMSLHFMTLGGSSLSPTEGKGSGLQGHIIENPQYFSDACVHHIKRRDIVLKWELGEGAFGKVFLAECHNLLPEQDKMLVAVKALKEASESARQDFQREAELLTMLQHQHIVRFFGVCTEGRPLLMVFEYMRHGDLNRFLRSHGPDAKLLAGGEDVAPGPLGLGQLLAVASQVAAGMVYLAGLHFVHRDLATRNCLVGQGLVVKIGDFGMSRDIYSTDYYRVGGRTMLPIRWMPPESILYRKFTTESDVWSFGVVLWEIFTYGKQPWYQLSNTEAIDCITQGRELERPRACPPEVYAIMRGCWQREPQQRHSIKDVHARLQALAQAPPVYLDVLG

Sequence of BTK (human) (Q06187 whole entry, looked up): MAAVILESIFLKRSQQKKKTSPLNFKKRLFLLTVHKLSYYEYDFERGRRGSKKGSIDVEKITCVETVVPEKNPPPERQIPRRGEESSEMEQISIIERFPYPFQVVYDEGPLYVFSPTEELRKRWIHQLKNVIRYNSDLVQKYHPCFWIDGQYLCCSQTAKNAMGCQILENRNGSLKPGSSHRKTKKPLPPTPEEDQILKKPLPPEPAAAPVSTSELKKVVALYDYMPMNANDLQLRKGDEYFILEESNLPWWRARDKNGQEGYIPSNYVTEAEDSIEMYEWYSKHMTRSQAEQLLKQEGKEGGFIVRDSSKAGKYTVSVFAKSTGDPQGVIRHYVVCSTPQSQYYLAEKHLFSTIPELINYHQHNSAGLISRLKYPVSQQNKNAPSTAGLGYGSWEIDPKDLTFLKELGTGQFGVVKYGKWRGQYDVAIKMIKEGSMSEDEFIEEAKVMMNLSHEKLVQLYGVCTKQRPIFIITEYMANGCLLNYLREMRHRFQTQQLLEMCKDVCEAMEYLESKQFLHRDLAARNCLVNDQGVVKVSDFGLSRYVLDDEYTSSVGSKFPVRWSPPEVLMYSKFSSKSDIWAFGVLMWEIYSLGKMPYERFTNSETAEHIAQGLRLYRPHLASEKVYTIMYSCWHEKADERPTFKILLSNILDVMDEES
Sequence of MARK4 (human) (Q96L34 whole entry, looked up): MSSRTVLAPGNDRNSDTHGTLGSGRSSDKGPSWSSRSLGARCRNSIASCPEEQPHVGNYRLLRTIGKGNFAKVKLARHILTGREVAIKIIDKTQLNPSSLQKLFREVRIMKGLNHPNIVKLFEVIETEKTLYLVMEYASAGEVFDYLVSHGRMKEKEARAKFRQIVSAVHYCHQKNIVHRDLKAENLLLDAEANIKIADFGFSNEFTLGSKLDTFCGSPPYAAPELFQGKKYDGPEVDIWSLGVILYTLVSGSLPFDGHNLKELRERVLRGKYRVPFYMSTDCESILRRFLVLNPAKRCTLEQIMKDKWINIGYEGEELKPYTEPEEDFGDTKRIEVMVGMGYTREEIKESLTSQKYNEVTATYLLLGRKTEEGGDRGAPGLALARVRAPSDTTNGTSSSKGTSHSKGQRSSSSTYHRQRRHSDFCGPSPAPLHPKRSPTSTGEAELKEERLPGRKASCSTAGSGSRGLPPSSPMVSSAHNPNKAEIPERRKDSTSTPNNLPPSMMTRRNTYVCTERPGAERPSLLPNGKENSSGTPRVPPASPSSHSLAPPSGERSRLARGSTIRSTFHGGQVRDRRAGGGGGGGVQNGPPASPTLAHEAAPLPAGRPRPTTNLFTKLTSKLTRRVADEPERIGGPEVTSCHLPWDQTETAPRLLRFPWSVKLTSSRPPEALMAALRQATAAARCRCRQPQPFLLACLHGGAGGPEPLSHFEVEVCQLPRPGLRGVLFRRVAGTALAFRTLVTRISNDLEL

residual activity (MAPK11 (human); compound 10.0 µM): 82%
residual activity (MAPK11 (human); compound 100.0 µM): 71%
residual activity (DYRK2 (human); compound 10.0 µM): 76%
residual activity (BTK (human); compound 10.0 µM): 82%
residual activity (MARK4 (human); compound 10.0 µM): 94%
residual activity (INSRR (human); compound 10.0 µM): 88%
residual activity (SRPK1 (human); compound 10.0 µM): 88%
residual activity (CLK2 (human)): 87%
residual activity (CSNK1D (human); compound 10.0 µM): 99%
residual activity (CSNK1D (human); compound 100.0 µM): 91%
residual activity (INSR (human); compound 10.0 µM): 95%
residual activity (YES1 (human); compound 10.0 µM): 96%
residual activity (FLT1 (human); compound 10.0 µM): 85%
residual activity (RPS6KA1 KD1 KD2 (human); compound 10.0 µM): 76%
residual activity (RPS6KA1 KD1 KD2 (human); compound 100.0 µM): 77%
residual activity (NEK2 (human); compound 10.0 µM): 77%
residual activity (NEK2 (human); compound 100.0 µM): 82%
residual activity (JAK2 JH1 JH2 (human); compound 10.0 µM): 101%
residual activity (MARK3 (human); compound 10.0 µM): 91%
residual activity (PRKCA (human); compound 10.0 µM): 103%
residual activity (PRKCA (human); compound 100.0 µM): 75%
residual activity (RIPK2 (human); compound 10.0 µM): 90%
residual activity (HIPK1 (human)): 88%
residual activity (IRAK4 (human); compound 10.0 µM): 86%
residual activity (CSNK2A1 (human); compound 10.0 µM): 110%
residual activity (CSNK2A1 (human); compound 100.0 µM): 101%
residual activity (MAP3K9 (human); compound 10.0 µM): 101%
residual activity ([1]; compound 10.0 µM): 92%
residual activity ([1]; compound 100.0 µM): 71%
residual activity (MAPKAPK3 (human); compound 10.0 µM): 86%
residual activity (AURKA (human); compound 10.0 µM): 99%
residual activity (MAPK1 (human); compound 10.0 µM): 91%
residual activity (MAPK1 (human); compound 100.0 µM): 82%
residual activity (MAP3K1 (human); compound 10.0 µM): 100%
residual activity (NEK6 (human); compound 10.0 µM): 107%
residual activity (NEK6 (human); compound 100.0 µM): 85%
residual activity (RPS6KA5 KD1 KD2 (human); compound 10.0 µM): 83%
residual activity (RPS6KA5 KD1 KD2 (human); compound 100.0 µM): 75%
residual activity (HIPK2 (human); compound 10.0 µM): 98%
residual activity ([2]; compound 10.0 µM): 81%
residual activity ([3]; compound 10.0 µM): 74%
residual activity (MKNK2 (human); compound 10.0 µM): 104%
residual activity (MAPK14 (human); compound 10.0 µM): 101%
residual activity (MAPK14 (human); compound 100.0 µM): 80%
residual activity (NTRK1 (human); compound 10.0 µM): 103%
SMILES: Cc1ccc2c(c1)C(=O)[C@@]1(O)CCN(c3ccccc3)C1=N2
residual activity (MAPK15 (human); compound 10.0 µM): 89%

residual activity (MAPK11 (human); compound 1.0 µM): 103%
residual activity (DYRK2 (human); compound 1.0 µM): 84%
residual activity (DYRK2 (human); compound 10.0 µM): 72%
residual activity (BTK (human); compound 1.0 µM): 63%
residual activity (BTK (human); compound 10.0 µM): 45%
residual activity (MARK4 (human); compound 1.0 µM): 57%
residual activity (MARK4 (human); compound 10.0 µM): 42%
residual activity (INSRR (human); compound 1.0 µM): 77%
residual activity (INSRR (human); compound 10.0 µM): 66%
residual activity (SRPK1 (human); compound 1.0 µM): 93%
residual activity (SRPK1 (human); compound 10.0 µM): 79%
residual activity (CLK2 (human)): 18%
residual activity (CSNK1D (human); compound 1.0 µM): 89%
residual activity (CSNK1D (human); compound 10.0 µM): 91%
residual activity (INSR (human); compound 1.0 µM): 104%
residual activity (INSR (human); compound 10.0 µM): 105%
residual activity (YES1 (human); compound 1.0 µM): 43%
residual activity (YES1 (human); compound 10.0 µM): 58%
residual activity (FLT1 (human); compound 1.0 µM): 15%
residual activity (FLT1 (human); compound 10.0 µM): 23%
residual activity (RPS6KA1 KD1 KD2 (human); compound 1.0 µM): 50%
residual activity (RPS6KA1 KD1 KD2 (human); compound 10.0 µM): 28%
residual activity (NEK2 (human); compound 1.0 µM): 41%
residual activity (NEK2 (human); compound 10.0 µM): 39%
residual activity (JAK2 JH1 JH2 (human); compound 1.0 µM): 34%
residual activity (JAK2 JH1 JH2 (human); compound 10.0 µM): 18%
residual activity (MARK3 (human); compound 1.0 µM): 31%
residual activity (MARK3 (human); compound 10.0 µM): 41%
residual activity (PRKCA (human); compound 1.0 µM): 96%
residual activity (PRKCA (human); compound 10.0 µM): 88%
residual activity (RIPK2 (human); compound 1.0 µM): 14%
residual activity (RIPK2 (human); compound 10.0 µM): 6%
residual activity (HIPK1 (human)): 58%
residual activity (IRAK4 (human); compound 1.0 µM): 13%
residual activity (IRAK4 (human); compound 10.0 µM): 6%
residual activity (CSNK2A1 (human); compound 1.0 µM): 118%
residual activity (CSNK2A1 (human); compound 10.0 µM): 107%
residual activity (MAP3K9 (human); compound 1.0 µM): 28%
residual activity (MAP3K9 (human); compound 10.0 µM): 8%
residual activity ([1]; compound 1.0 µM): 87%
residual activity ([1]; compound 10.0 µM): 66%
residual activity (MAPKAPK3 (human); compound 1.0 µM): 93%
residual activity (MAPKAPK3 (human); compound 10.0 µM): 67%
residual activity (AURKA (human); compound 1.0 µM): 29%
residual activity (AURKA (human); compound 10.0 µM): 6%
residual activity (MAPK1 (human); compound 1.0 µM): 104%
residual activity (MAPK1 (human); compound 10.0 µM): 88%
residual activity (MAP3K1 (human); compound 1.0 µM): 77%
residual activity (MAP3K1 (human); compound 10.0 µM): 54%
residual activity (NEK6 (human); compound 1.0 µM): 93%
residual activity (NEK6 (human); compound 10.0 µM): 77%
residual activity (RPS6KA5 KD1 KD2 (human); compound 1.0 µM): 78%
residual activity (RPS6KA5 KD1 KD2 (human); compound 10.0 µM): 58%
residual activity (HIPK2 (human); compound 1.0 µM): 49%
residual activity (HIPK2 (human); compound 10.0 µM): 32%
residual activity ([2]; compound 1.0 µM): 80%
residual activity ([2]; compound 10.0 µM): 62%
residual activity ([3]; compound 1.0 µM): 72%
residual activity ([3]; compound 10.0 µM): 98%
residual activity (MKNK2 (human); compound 1.0 µM): 47%
residual activity (MKNK2 (human); compound 10.0 µM): 35%
residual activity (MAPK14 (human); compound 1.0 µM): 91%
residual activity (MAPK14 (human); compound 10.0 µM): 85%
residual activity (NTRK1 (human); compound 1.0 µM): 30%
residual activity (NTRK1 (human); compound 10.0 µM): 28%
SMILES: COc1cc2ncn(-c3cc(OCc4ccccc4S(C)(=O)=O)c(C#N)s3)c2cc1OC
residual activity (MAPK15 (human); compound 1.0 µM): 65%
residual activity (MAPK15 (human); compound 10.0 µM): 15%
